# Measured values taken from patent US6630447B2, “Peptide inhibitors of LFA-1/ICAM-1 interaction” (University of New Mexico, priority 2000, dated 2003).
# Like-named read-outs stand apart in the source and are kept apart here. Bridge positions count the residues as written; N and C are the ends. Peptide text beside a SMILES is read from it.
# How the values were obtained:
# [1] = tested on: neutrophil binding to stimulated endothelial cells; assay: Firm attachment of neutrophils to stimulated endothelial cells in a parallel plate flow chamber; format: cell-based, human; settings: for Percent Inhibition of firm attachment of neutrophils: (1 − (Observed/Maximum)) × 100; for Percent Inhibition of firm attachment of neutrophils / Firmly attached neutrophils, Cells/mm^2: (SD) in parentheses; for Neutrophil-binding to endothelium (in words): physiologic flow conditions; for Firmly attached neutrophils, Cells/mm^2: physiologic flow
# Description: An assay has been developed that provides an in vitro model of neutrophils or APL cells binding to activated endothelium. The binding of APL cells using a parallel plate flow chamber recapitulates events that occur in retinoic acid syndrome (Larson et al., 1997; Brown et al., 1999). A parallel plate flow chamber simulates the physiologic flow conditions in blood and adhesive interactions in post-capillary venules. Post-capillary venules are the physiologically relevant locations of leukemia cell-endothelial cell interaction and extravasation. […] Monolayers of endothelial cells are placed in the parallel plate flow chamber, and the leukemic cells are pumped through the chamber at physiologic flow rates. The interaction between the flowing leukemia cells and the endothelium are videotaped microscopically, and the number of rolling, firmly adhered and transmigrated leukemia cells is quantified by computer-assisted image analysis.
# For investigating neutrophil binding, neutrophils are isolated from heparin anticoagulated venous blood of healthy adult donors by centrifugation on Ficoll-Hypaque density gradients as described by Simon et al. (1992). Isolated neutrophils are suspended at a concentration of 10^7/ml in Hanks' Balanced Salt Solution supplemented with 10 mmol/L HEPES, pH 7.4 and 0.2% human serum albumin (Armour Pharmaceutical, Kankakee, Ill.) and used within 2 hours of preparation. Neutrophils are kept on ice and resuspended in RPMi pre-warmed to 37° C. immediately before use.
# [2] = tested on: LFA-1/ICAM-1 mediated JY cell aggregation; format: cell-based; settings: for Percent Inhibition: (1 − (Observed/Max) × 100); for Percent Inhibition / Percent JY Aggregation: (SD) in parentheses; for Inhibition of LFA-1/ICAM-1 mediated JY cell aggregation compared to SEQ ID NO: 1 (in words): substituted derivatives of the consensus peptide
# Experimental: LFA-1 dependent cell aggregation has been previously studied using an aggregation assay it with a variety of leukocyte subclasses and cell lines (Larson et al., 1990; Wang et al., 1988; Larson et al., 1997). JY cells were obtained form American Type Tissue Culture Collection and were maintained in RPMI 1640 supplemented with 10% FBS at 37° C. in 5% CO2. Aggregation of cells was measured in a homotypic aggregation assay using ICAM-1 as a stimuli. JY cells were washed twice with serum free medium and resuspended at a concentration of 4×10^5 is cells/ml. Cells were preincubated with the desired concentration of peptide for 15 min at room temperature. In a final volume of 100 μl, 50 μl of cells and peptide were seeded in 96 well flat bottomed microtiter plates. Cells were allowed to aggregate at 37° C. in humidified air with 5% CO2. Cells were visualized and counted by inverted phase contrast microscopy at the time indicated. Within each well of aggregates as well as the total number of free (single) cells were counted. percent aggregation was determined by the following equation:
# Percent aggregation=100×(1−number of free cells/total number of cells)
# The consensus peptide (SEQ ID NO: 1) and the randomized sequence CLMIRMLRC (SEQ ID NO: 33), cyclizied in the disulfide-linked form, were synthesized by Biopeptide (San Diego, Calif.) and tested in a screening assay for the ability to inhibit aggregation of the cell line JY, which aggregates in an LFA-1/CAM-1 dependent manner. Aggregation measurements are relatively rapid and quantifiable. Furthermore, small volumes are used minimizing peptide consumption. Finally, cell aggregation in vitro depends on a multivalent LFA-1/ICAM-1 interaction. A peptide that is identified as being able to block cell aggregation in vitro is, therefore, likely to have affinity and off-rate characteristics that would make it an effective in vivo inhibitor, since cell—cell interaction in vivo also involves multivalent LFA-1/ICAM-1 interaction. Using this assay, the consensus peptide sequence has an IC50 of 500 μM (FIG. 1).
# Peptides are initially tested for their ability to block LFA-1/ICAM dependent aggregation of the cell line JY (Wang et al., 1988; Larson et al., 1997). Peptides are preferably tested over a range of concentrations ([…], for example) and the concentration leading to half maximal inhibition of aggregation (IC50) is determined for all the peptide sequences.
# [3] = Solubility of peptides in aqueous solution; format: physicochemical
# Description: An alternative derivative peptide strategy was undertaken in which the consensus sequence peptide was subjected to an alanine-screening procedure as described by Cunningham and Wells, 1989. Peptides cyclizied in the disulfide-linked form were synthesized by Biopeptide (San Diego, Calif.) wherein an alanine was substituted at each position in the hepatapeptide LLRMRSI of the consensus sequence SEQ ID NO: 1, and each peptide was examined in parallel for its ability to inhibit LFA-1/ICAM-1 mediated JY cell aggregation. Six of the seven peptides were soluble in aqueous solution. SEQ ID NO: 376, representing a substitution of the arginine in position 4 of SEQ ID NO: 1, was not soluble at […] and could not be tested. […] The randomized sequence CLRLSRIMC (SEQ ID NO: 56) was used as a control.
# [4] = Table 3, alanine-substituted derivations
# [5] = Table 4, homologous amino acid substitutions
Compound,"Percent Inhibition ([2]; Table 3, JY cell aggregation)","Percent JY Aggregation [2, 4]","Percent Inhibition ([2]; Table 4, JY cell aggregation)","Percent JY Aggregation [2, 5]",Inhibition of LFA-1/ICAM-1 mediated JY cell aggregation compared to SEQ ID NO: 1 (in words) [2],other results
"CC[C@H](C)[C@@H]1NC(=O)[C@H](CO)NC(=O)[C@H](CCCNC(=N)N)NC(=O)[C@H](CCSC)NC(=O)[C@H](CCCNC(=N)N)NC(=O)[C@H](CC(C)C)NC(=O)[C@H](CC(C)C)NC(=O)[C@@H](N)CSSC[C@@H](C(=O)O)NC1=O [SEQ ID NO: 1, CLLRMRSIC] (H-CLLRMRSIC-OH; disulfide 1-9)",46(11) Percent,41(8) Percent,45(9) Percent,30(5) Percent,–,"Percent Inhibition of firm attachment of neutrophils [1]: 47(15) Percent; Neutrophil-binding to endothelium (in words) ([1]; parallel plate flow chamber): block; Firmly attached neutrophils, Cells/mm^2 [1]: 439(120) Cells/mm^2; Aggregation of JY cells (FIG. 1, in words) ([2]; titration of 100 μM to 1 mM): inhibited"
CLLRARSIC (OTHER INFORMATION: Description of Artificial Sequence:Synthetic) [SEQ ID NO: 37],5(14) Percent,72(11) Percent,–,–,Loss of inhibitory function,–
"CC[C@H](C)[C@@H]1NC(=O)[C@H](CCCNC(=N)N)NC(=O)[C@H](CO)NC(=O)[C@H](CC(C)C)NC(=O)[C@H](CCCNC(=N)N)NC(=O)[C@H](CC(C)C)NC(=O)[C@@H](N)CSSC[C@@H](C(=O)O)NC(=O)[C@H](CCSC)NC1=O [SEQ ID NO: 56, CLRLSRIMC, reference compound] (H-CLRLSRIMC-OH; disulfide 1-9 (inferred))",–,–,–,–,–,Aqueous solubility relative to randomized sequence SEQ ID NO: 33 [3]: greater aqueous solubility
CLIRMRSAC (OTHER INFORMATION: Description of Artificial Sequence:Synthetic) [SEQ ID NO: 44],–,–,93(3) Percent,4(2) Percent,greater inhibition,–
CLLRMKSAC (OTHER INFORMATION: Description of Artificial Sequence:Synthetic) [SEQ ID NO: 46],–,–,90(4) Percent,6(2) Percent,greater inhibition,"Percent Inhibition of firm attachment of neutrophils [1]: 66(0) Percent; Inhibition of attachment of neutrophils to activated endothelium compared to SEQ ID NO: 1 (in words) ([1]; parallel plate flow chamber): greater inhibition; Neutrophil-binding to endothelium (in words) ([1]; parallel plate flow chamber): block; Firmly attached neutrophils, Cells/mm^2 [1]: 283(0) Cells/mm^2"
CLVRMRSAC (OTHER INFORMATION: Description of Artificial Sequence:Synthetic) [SEQ ID NO: 41],–,–,0(1) Percent,55(1) Percent,–,–
"CC[C@H](C)[C@@H]1NC(=O)[C@H](CO)NC(=O)[C@H](CCCNC(=N)N)NC(=O)[C@H](CCSC)NC(=O)[C@H](C)NC(=O)[C@H](CC(C)C)NC(=O)[C@H](CC(C)C)NC(=O)[C@@H](N)CSSC[C@@H](C(=O)O)NC1=O [SEQ ID NO: 36, CLLAMRSIC] (H-CLLAMRSIC-OH; disulfide 1-9)",–,–,–,–,Loss of inhibitory function,Solubility in aqueous solution ([3]; at 1 nm): Not Soluble
CLLRMRSAC (OTHER INFORMATION: Description of Artificial Sequence:Synthetic) [SEQ ID NO: 40],61(17) Percent,29(13) Percent,–,–,more potent antagonist,–
CLARMRSIC (OTHER INFORMATION: Description of Artificial Sequence:Synthetic) [SEQ ID NO: 35],9(22) Percent,69(17) Percent,–,–,Loss of inhibitory function,–
CVLRMRSAC (OTHER INFORMATION: Description of Artificial Sequence:Synthetic) [SEQ ID NO: 42],–,–,56(6) Percent,24(3) Percent,–,–
CLLRMRSLC (OTHER INFORMATION: Description of Artificial Sequence:Synthetic) [SEQ ID NO: 47],–,–,−12(13) Percent,61(7) Percent,–,–
CILRMRSAC (OTHER INFORMATION: Description of Artificial Sequence:Synthetic) [SEQ ID NO: 43],–,–,92(9) Percent,4(5) Percent,greater inhibition,–
"CLMIRMLRC (OTHER INFORMATION: Description of Artificial Sequence:Synthetic) [SEQ ID NO: 33, reference compound]",–,–,–,–,–,"Aggregation of JY cells (FIG. 1, in words) ([2]; concentration of 1 mM): ineffective"
CLLRMRAIC (OTHER INFORMATION: Description of Artificial Sequence:Synthetic) [SEQ ID NO: 39],27(21) Percent,56(16) Percent,–,–,no significant effect,–
CLLRMRSVC (OTHER INFORMATION: Description of Artificial Sequence:Synthetic) [SEQ ID NO: 48],–,–,92(3) Percent,4(1) Percent,greater inhibition,–
CLLKMRSAC (OTHER INFORMATION: Description of Artificial Sequence:Synthetic) [SEQ ID NO: 45],–,–,94(3) Percent,3(2) Percent,greater inhibition,–
CLLRMASIC (OTHER INFORMATION: Description of Artificial Sequence:Synthetic) [SEQ ID NO: 38],11(12) Percent,68(9) Percent,–,–,Loss of inhibitory function,–
CALRMRSIC (OTHER INFORMATION: Description of Artificial Sequence:Synthetic) [SEQ ID NO: 34],7(19) Percent,71(15) Percent,–,–,Loss of inhibitory function,–
